In ChEMBL document CHEMBL3638859, “Aryl benzylamine compounds” (2014):

Biological target: Sphingosine 1-phosphate receptor 1 (Homo sapiens, UniProt P21453)
Assay: Receptor Calcium FLIPR Antagonist Assay: The assay measures intracellular changes of Ca2+ mediated by the synthetic probing agonist 3-{[2-(2-Trifluoromethyl-biphenyl-4-yl)-benzo[b]thiophen-5-ylmethyl]-amino}-propionic acid (GNF-AC-1) in the HeLa-S1P1/Galpha16 cell clone 1: HeLa (human cervix carcinoma, ATCC CCL2) cells stably expressing N-terminally myc-tagged human S1P1 receptors (GenBank accession No. NM001400; UNIPROT P21453) and promiscuous Galpha16 protein (GenBank accession number M63904, Swissprot P30679) are cultured at 37 C., 5% CO2, and 95% relative humidity. The cells are plated in 384 well black plates (10'000 cells per well). After 24 hours the cells are loaded with Fluo-4-AM (1.6 uM in HBSS and 2.5 mM probenicid) for 1 hour at 37 C. After washing, the cells are transferred to the FLIPR. The test compounds are added at different concentrations (<=100 uM) in HBSS in the presence of 0.1% BSA and changes in fluorescence are recorded (indication of agonism).
Type: functional, cell-based

Chain of Sphingosine 1-phosphate receptor 1 (P21453 whole entry): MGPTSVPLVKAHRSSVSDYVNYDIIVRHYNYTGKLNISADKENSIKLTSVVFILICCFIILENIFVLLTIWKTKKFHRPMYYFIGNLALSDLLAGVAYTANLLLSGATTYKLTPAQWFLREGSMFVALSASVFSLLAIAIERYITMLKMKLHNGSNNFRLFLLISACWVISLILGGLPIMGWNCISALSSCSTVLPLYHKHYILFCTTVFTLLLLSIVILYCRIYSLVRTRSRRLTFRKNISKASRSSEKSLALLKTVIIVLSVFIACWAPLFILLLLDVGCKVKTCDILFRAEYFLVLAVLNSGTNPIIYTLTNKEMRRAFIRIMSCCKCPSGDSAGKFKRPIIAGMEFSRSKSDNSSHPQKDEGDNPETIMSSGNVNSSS

IC50 [nM]	Compound
2.4	CC[C@@H](Nc1ccc(Cl)c(CNCCC(=O)O)c1)c1cc(C)c(Cl)c(C)c1
0.1	Cc1cc([C@H](Nc2ccc(F)c(CN3CC(C(=O)O)C3)c2)C(F)(F)F)ccc1Cl
